Reference: patent publication US11226337B2, “Chemoproteomic profiling of protein electrophilic and oxidative post-translational modifications” (Zenagem, LLC, priority 2017, dated 2022)

What was measured:
Experiment in all cases: SILAC RP-ABPP
Format in all cases: cell-based
[1] = biological target: T1, AMD1 S-adenosylmethionine decarboxylase (P17707) (Homo sapiens, UniProt P17707); details: SILAC H/L, HEK293T
T1 construct: shared by both the endogenous and recombinant forms of these proteins; endogenous in cells; host or cells: HEK293T and MDA-MB-231
T1 sequence (P17707 68-334 limits assumed): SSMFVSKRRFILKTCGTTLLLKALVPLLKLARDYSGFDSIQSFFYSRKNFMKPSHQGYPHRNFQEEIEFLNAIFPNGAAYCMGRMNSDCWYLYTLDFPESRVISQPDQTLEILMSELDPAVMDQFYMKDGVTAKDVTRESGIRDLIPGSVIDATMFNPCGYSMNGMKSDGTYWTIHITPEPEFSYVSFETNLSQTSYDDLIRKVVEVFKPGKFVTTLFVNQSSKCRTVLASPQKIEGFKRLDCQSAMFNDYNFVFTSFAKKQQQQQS
T1 sequence (P17707 1-67 limits assumed): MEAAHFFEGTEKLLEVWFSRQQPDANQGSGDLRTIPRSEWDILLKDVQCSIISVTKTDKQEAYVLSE
Method: (§1) Modifications to this protocol included using isotopically ‘light’ and ‘heavy’ SILAC cells that were also grown to near complete confluence prior to treatment. Isotopically light cells were treated with the non-clickable hydrazine probe (at the same concentration as the probe in ‘enrichment’ experiments) or the probe in the presence of 10-fold excess non-clickable hydrazine probe as a competitor (in ‘competition’ experiments). Isotopically heavy cells were treated with the probe for both types of experiments. These treatments were performed in non-SILAC media. Following treatments, cells were washed with cold PBS to remove the probe-containing media, harvested by scraping, collected by centrifugation (1,400 g, 3 min, 4° C.), washed again by resuspension in cold PBS and frozen as pellets at −80° C. until use.
(§2) The fractionated equimolar mixture of heavy and light soluble proteomes (1-1.5 mg) was diluted to 1 mL in PBS. Click reactions were scaled accordingly (except for biotin-azide) to maintain final concentrations of 0.1 mM TBTA, 1 mM CuSO4, 100 μM biotin-azide (10 mM in DMSO) and 1 mM TCEP. The mixture was vortexed and placed on a rotator at ambient temperature for 1 hour. Sequential addition of and mixture with pre-chilled methanol (MeOH, 2 mL), chloroform (CHCl3, 0.5 mL) and PBS (1 mL) on ice quenched the reaction. The precipitated proteome was centrifuged (5,000 g, 10 min, 4° C.) to fractionate the protein interphase from the organic and aqueous solvent layers. The protein pellet was washed with cold 1:1 MeOH:CHCl3 (3×1 mL), mildly sonicated in cold 4:1 MeOH:CHCl3 (2.5 mL) and pelleted once more by centrifugation (5,000 g, 10 min, 4° C.) to ensure click reagents were efficiently removed.
(§3) Heavy and light parent ion chromatograms associated with successfully identified peptides were extracted and compared using CIMAGE software as previously described^69. At least one ion of a co-eluting heavy-light pair must be accurately identified from a fragmentation event that occurred within the retention time window (±10 min) of parent ion elution. To ensure that the correct pair of peaks is quantified, chromatograms are extracted within a 10 ppm error tolerance of the predicted m/z, the signal-to-noise ratio must be >2.5 and the ‘co-elution correlation score’ and ‘envelope correlation score’ must have R^2 values ≥0.8. In addition, peptides detected as ‘singletons,’ where only the heavy ion of a peptide pair was identified, but for which passed all other filtering parameters, are given a default assigned ratio of ‘20,’ which is defined as any measured ratio that is ≥20.
(§4) To further eliminate false positives and any stochastic variability in the data, protein ratios were then determined by the median peptide ratio derived from three or more unique quantified peptides. Protein ratios that complied with these criteria from a single experiment were then averaged with ratios acquired from ≥3 replicates to provide final values for each type of experiment in both cell lines with both probes. […] Probe targets in HEK293T and MDA-MB-231 cells represent data combined from ≥3 independent biological replicates with each cell type performed with several independent batches of synthesized probes over a period of almost two years.
(§5) Two types of experiments were performed—1) direct enrichment of probe 1-labelled proteins from heavy cells in comparison to light control cells treated with the non-clickable hydrazine (3) at the same concentration as 1 (3 mM for 0.5 h); and 2) competition experiments where both heavy and light cells were treated probe 1, but light cells were also treated with 10× competitor 3 (FIG. 3A)—in two different human cell lines (HEK293T cells and the human breast cancer cell line MDA-MB-231).

[2] = biological target: T2, LGMN Legumain (Q99538) (Homo sapiens, UniProt Q99538); details: SILAC H/L
T2 construct: shared by both the endogenous and recombinant forms of these proteins; endogenous in cells; host or cells: HEK293T and MDA-MB-231
T2 sequence (Q99538 18-323): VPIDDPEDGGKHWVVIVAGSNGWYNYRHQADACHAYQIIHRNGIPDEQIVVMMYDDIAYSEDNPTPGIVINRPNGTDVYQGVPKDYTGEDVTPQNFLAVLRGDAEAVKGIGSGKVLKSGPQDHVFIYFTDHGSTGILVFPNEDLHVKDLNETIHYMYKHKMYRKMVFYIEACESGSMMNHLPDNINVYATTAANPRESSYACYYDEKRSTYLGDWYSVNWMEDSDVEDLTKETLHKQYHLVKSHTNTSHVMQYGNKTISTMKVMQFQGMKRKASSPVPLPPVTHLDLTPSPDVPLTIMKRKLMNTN
Method: as §1, §2, §3, §4, §5

[3] = biological target: T3, SCRN3 Secernin-3 (Q0VDG4) (Homo sapiens, UniProt Q0VDG4); details: SILAC H/L, HEK293T
T3 construct: shared by both the endogenous and recombinant forms of these proteins; endogenous in cells; host or cells: HEK293T and MDA-MB-231
T3 sequence (Q0VDG4 6-424): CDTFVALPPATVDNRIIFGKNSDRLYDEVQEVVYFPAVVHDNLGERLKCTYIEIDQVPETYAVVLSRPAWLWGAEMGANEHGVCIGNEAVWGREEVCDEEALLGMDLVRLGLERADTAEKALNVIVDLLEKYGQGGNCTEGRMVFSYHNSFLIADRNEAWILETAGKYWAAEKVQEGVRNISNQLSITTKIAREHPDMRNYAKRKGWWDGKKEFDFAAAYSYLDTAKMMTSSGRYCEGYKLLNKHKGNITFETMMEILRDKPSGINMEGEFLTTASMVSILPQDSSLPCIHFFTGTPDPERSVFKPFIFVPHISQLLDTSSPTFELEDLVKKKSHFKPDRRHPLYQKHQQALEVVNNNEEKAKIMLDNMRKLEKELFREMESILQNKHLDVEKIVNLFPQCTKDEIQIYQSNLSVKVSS
Method: as §1, §2, §3, §4, §5

| enrichment ratioavg ([1]; probe 2 1 mM 0.5 h vs probe 4) | competition ratioavg ([1]; probe 2 vs probe 2+10x probe 4) | enrichment ratioavg ([2]; probe 2 1 mM 0.5 h vs probe 4, MDA-MB-231) | competition ratioavg ([2]; probe 2 vs probe 2+10x probe 4, MDA-MB-231) | enrichment ratioavg ([3]; probe 2 1 mM 0.5 h vs probe 4) | competition ratioavg ([3]; probe 2 vs probe 2+10x probe 4) | Structure (SMILES) | enrichment ratioavg ([1]; probe 1 3 mM 0.5 h vs probe 3) | competition ratioavg ([1]; probe 1 vs probe 1+10x probe 3) | enrichment ratioavg ([2]; probe 1 3 mM 0.5 h vs probe 3, HEK293T) | competition ratioavg ([2]; probe 1 vs probe 1+10x probe 3, HEK293T) | enrichment ratioavg ([3]; probe 1 3 mM 0.5 h vs probe 3) | competition ratioavg ([3]; probe 1 vs probe 1+10x probe 3) |
| --- | --- | --- | --- | --- | --- | --- | --- | --- | --- | --- | --- | --- |
|  |  |  |  |  |  | C#CCNN.Cl [probe 1, prop-2-yn-1-ylhydrazine hydrochloride] | 20 | 5 | 20 | 18 | 20 | 6 |
| 20 | 6 | 20 | 4 | 15 | 16 | C#CCCNC(=O)c1ccc(NN)cc1.Cl [probe 2, N-(but-3-yn-1-yl)-4-hydrazinylbenzamide hydrochloride] |  |  |  |  |  |  |
